In patent US20120077779A1, “Inhibitors of Fibroblast Activation Protein Alpha” (Trustees of Tufts College, priority 2005, published 2012):

Key:
FAP = target: T1, FAP (Homo sapiens, UniProt Q12884); assay: Enzymatic activity of purified FAP, chromogenic substrate H-Ala-Pro-pNA; assay type: biochemical; settings: pH 7.4, 25° C.; for IC50 FAP (pH 7.4): 10 min pre-incubation, result in words; for IC50: 10 min pre-incubation with enzyme
T1 sequence (Q12884 1-760): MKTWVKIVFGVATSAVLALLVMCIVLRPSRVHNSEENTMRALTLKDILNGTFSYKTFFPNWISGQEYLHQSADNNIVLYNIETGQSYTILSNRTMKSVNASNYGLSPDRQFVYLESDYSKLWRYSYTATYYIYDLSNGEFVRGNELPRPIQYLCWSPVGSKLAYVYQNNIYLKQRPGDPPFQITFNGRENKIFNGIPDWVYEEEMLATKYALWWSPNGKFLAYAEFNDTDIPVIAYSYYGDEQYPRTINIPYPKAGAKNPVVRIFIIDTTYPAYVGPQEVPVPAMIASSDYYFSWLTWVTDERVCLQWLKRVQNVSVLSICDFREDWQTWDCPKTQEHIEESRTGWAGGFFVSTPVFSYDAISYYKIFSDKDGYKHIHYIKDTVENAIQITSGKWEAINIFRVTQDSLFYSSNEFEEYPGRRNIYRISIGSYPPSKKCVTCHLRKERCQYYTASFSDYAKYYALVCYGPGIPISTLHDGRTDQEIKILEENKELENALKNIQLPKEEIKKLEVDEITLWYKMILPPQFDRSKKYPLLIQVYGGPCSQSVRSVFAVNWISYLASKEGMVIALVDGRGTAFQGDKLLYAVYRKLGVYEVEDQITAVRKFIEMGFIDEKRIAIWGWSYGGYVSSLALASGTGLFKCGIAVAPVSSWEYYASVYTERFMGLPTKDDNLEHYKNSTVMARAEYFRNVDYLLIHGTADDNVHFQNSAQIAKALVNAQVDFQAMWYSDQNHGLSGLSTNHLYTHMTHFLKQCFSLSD
Procedure: The enzymatic activity of purified FAP was measured at 25° C. on a Molecular Devices SPECTRAmax 340PC384 microtiter plate reader by monitoring the absorbance of H-Ala-Pro-pNA (Bachem) as the chromogenic substrate at 410 nm. […] Assays and their corresponding measurements were performed in duplicate. […] Inhibitor stock solutions (1 mM) were prepared in HCl solution (pH 2.0), and stored at −20° C. Stock solutions were diluted with 20 mM TRIS-HCl, KCl (20 mM) buffer at pH 7.4 immediately preceding the experiment according to the protocol.

DPP IV = DPP IV (Homo sapiens, UniProt P27487); assay: DPP IV inhibition (Table 1); assay type: biochemical; settings: pH 8.0
Chain of DPP IV (P27487 whole entry, species assumed): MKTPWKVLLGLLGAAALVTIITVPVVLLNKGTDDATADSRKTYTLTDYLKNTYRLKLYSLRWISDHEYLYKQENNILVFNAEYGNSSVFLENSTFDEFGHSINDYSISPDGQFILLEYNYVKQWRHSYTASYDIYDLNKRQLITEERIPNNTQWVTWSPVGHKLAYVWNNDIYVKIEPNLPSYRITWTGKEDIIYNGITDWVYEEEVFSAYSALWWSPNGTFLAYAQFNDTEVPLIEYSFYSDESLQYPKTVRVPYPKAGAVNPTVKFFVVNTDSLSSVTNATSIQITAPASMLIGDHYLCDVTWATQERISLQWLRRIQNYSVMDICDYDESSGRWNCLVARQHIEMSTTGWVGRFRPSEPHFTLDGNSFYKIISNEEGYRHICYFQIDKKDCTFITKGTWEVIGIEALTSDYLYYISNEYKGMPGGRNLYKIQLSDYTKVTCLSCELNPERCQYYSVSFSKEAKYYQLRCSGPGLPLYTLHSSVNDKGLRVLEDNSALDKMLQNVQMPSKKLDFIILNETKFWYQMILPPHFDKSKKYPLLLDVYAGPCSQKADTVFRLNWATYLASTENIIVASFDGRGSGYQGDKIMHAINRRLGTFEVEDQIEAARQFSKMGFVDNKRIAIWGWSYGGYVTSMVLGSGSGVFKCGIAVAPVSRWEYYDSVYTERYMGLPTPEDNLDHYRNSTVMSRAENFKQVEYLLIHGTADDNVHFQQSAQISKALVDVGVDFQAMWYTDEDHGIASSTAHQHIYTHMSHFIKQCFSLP

IC50 FAP (pH 7.4) (FAP) | IC50 (DPP IV) [µM] | IC50 (FAP) [µM] | SMILES
 |  | 14 | O=C(NCC(=O)N1CCSC1)c1ccccc1 [Compound 31]
no inhib. |  |  | CC[C@H](NC(=O)[C@@H](NC(C)=O)C(C)C)B(O)O [Compound 36]
 |  | 9 | CC[C@H](NC(=O)CNC(=O)c1cccc2ccccc12)B(O)O [Compound 34]
 |  | 30 | CC(C)[C@H](NC(=O)c1ccccc1)C(=O)N1CCC[C@H]1B(O)O [Compound 32]

Continued, compound first:

SMILES | IC50 FAP (pH 7.4) (FAP) | IC50 (DPP IV) [µM] | IC50 (FAP) [µM]
CC(=O)N[C@H](C(=O)N[C@@H](C)B(O)O)C(C)C [Compound 35] | no inhib. |  | 
NCC(=O)N1CCC[C@H]1B(O)O [Compound 6] |  | 6.9 | 
CCNCC(=O)N1CCCC1B(O)O (stereo not shown) [Compound 13] |  | 46 | 
CC(C)NCC(=O)N1CCCC1B(O)O (stereo not shown) [Compound 15] |  | 0.9 | 0.99
N#C[C@@H]1CCCN1C(=O)CNC(=O)c1ccccc1 [Compound 30] |  |  | 2.2
CNCC(=O)N1CCCC1B(O)O (stereo not shown) [Compound 12] | no inhib. | 560 | 
C[C@H](NC(=O)CNC(=O)c1cccc2ccccc12)B(O)O [Compound 33] |  |  | 8.2
